Earlier results, collected in patent publication US5250561A, “Tetrahydroindazole, tetrahydrocyclopentapyrazole, and hexahydrocycloheptapyrazole compounds and their use as HMG-COA reductase inhibitors” (Ortho Pharmaceutical Corporation, priority 1992, dated 1993).

Tests used:
[1] = tested on: HMG-CoA reductase; conditions: lovastatin: open dihydroxy acid form; cited from earlier work
[2] = cited from earlier work

For CCC(C)(C)C(=O)O[C@H]1C[C@@H](C)C=C2C=C[C@H](C)[C@H](CC[C@@H]3C[C@@H](O)CC(=O)O3)[C@H]21 [simvastatin], the “inhibition of HMG-CoA reductase (in words)” value [1] is given as “inhibitors of HMG-CoA reductase”.

For CC[C@H](C)C(=O)O[C@H]1C[C@@H](C)C=C2C=C[C@H](C)[C@H](CC[C@@H]3C[C@@H](O)CC(=O)O3)[C@H]21 [lovastatin], the “effect of combined administration with other hypolipidemic agents on LDL and total cholesterol concentrations” value ([2]; combination) is listed as “potentiate their effects on LDL and total cholesterol concentrations”, the “reduction of LDL cholesterol levels compared with cholestyramine and probucol” value ([2]; primary hypercholesterolemia) is listed as “reduced LDL cholesterol levels to a significantly greater extent” and the “increase in high density lipoprotein (HDL) cholesterol concentration” value ([2]; several large clinical studies) is listed as “up to 10%”. The “inhibition of HMG-CoA reductase (in words)” value [1] was “reversible, competitive inhibitor of the enzyme”.
